Patent US20260226101A1, “PEPTIDE WITH ANTI-INFLAMMATORY AND ANTI-MICROBIAL ACTIVITY” (priority 2023, published 2026)
Ends that are not written are not given here.

What was measured:
[1] = system: LPS-stimulated RAW 264.7 cells; assay: ELISA of cytokines in supernatants of LPS-stimulated RAW 264.7 cells; assay type: cell-based, murine
Procedure: Cells were sub-cultured by scraping when plates reached 70-80% confluence with a 1:5 ratio in fresh medium. RAW 264.7 cells were plated at density of 1×10^5 cells and allowed for attachment. The growth medium was then replaced with fresh medium without FBS and incubated for 6 h then cells were pre-treated with different concentrations of synthetic peptides: IS 111 (3.12, 6.25, 12.5, 25, 50 and 100 μg/mL) or dexamethasone (500 μg/mL) as a positive control for 1 h followed by stimulation of LPS (1 μg/mL) and then further incubated for 18 h and were allowed to adhere. After 18 h of incubation, plates were centrifuged for 6 min at 400×g and the supernatants and cell lysates were collected and kept frozen at −80° C. until used for further analysis.
At the end of the treatment period, cells were harvested in RNA isoplus reagent for subsequent cellular RNA extraction, for RTqPCR. The pro & anti-inflammatory cytokine production in supernatants was estimated by using ELISA, RTqPCR and western blotting in cell lysates. The experiment was carried out in triplicate. LPS and Dexamethasone were used as the controls.
The following treatments were applied for the anti-inflammatory test: • (1) The negative control: RAW 264.7 cells without being induced by lipopolysaccharide; no drug treatment. • (2) The positive control: RAW264.7 cells that were induced by […] of lipopolysaccharide (LPS group). • (3) The mixture of Synthetic peptides: IS 111 (3.12, 6.25, 12.5, 25, 50 and 100 μg/ml), LPS (1 μg/mL) and RAW 264.7 cells; and • (4) The standard positive control: The mixture of dexamethasone (500 μg/mL), LPS (1 μg/mL), and RAW 264.7 cells.
The levels of IL-6, TNF-α, IL-1β, and IL-10 in the supernatants of RAW 264.7 cell cultures were determined using an ELISA kit, according to the manufacturer's instructions (R&D Systems).

[2] = system: E. coli ATCC 8739-induced septic peritonitis; assay: E. coli-induced septic peritonitis model; assay type: in vivo, BALB/c mice; details: for Mice alive: 18 h after infection
Procedure: Bacterial strain of E. coli ATCC 8739™ were maintained in our laboratory and used for the mouse sepsis model. The strain was previously stored at −80° C. in a Luria Bertani (LB) broth with 15-20% of glycerol. Single colonies from viable, growing Luria-Bertani (LB) agar plates were transferred to sterile liquid LB medium (containing 10 g tryptone, 10 g NaCl, and 5 g yeast extract per liter) and cultivated aerobically in 50-ml volumes at 37° C. in an orbital shaker for 24 h at 37° C. These cultures were transferred to 500 ml of fresh LB medium for another 12 h. The optical density (OD) of the suspension was adjusted to 0.3 (exponential phase) using a spectrophotometer. Such OD corresponds to*10^8 colony-forming units (CFU)/mL. When bacteria were in the log phase of growth, the suspension was harvested by centrifugation at 1500×g for 5 min at 4° C.; the supernatant was discarded and washed and resuspended three times in phosphate-buffered saline (PBS) at pH 7.4 and mixed by vortexing to achieve a concentration of approximately 1×10^8 colony-formation units (CFU) per milliliter. Finally, the bacterial suspensions were incubated in a water bath at 100° C. for 30 min to inactivate the cells. One hundred microliters of the suspension were serially diluted with sterile saline solution, plated on sheep blood agar plates, and incubated for 18 hours for determination of the bacterial concentration. The rest of the culture suspension was stored at 4° C. until use. Just before the intraperitoneal injection, the bacterial suspension was adjusted to a concentration of 1×10^8 colony forming units (CFU) per 0.1 mL with normal saline solution/PBS.
This study was carried out within an animal containment BSL2 facility. The animals were infected with suspensions containing […] E. coli 8739™ (200 μL) inoculated intraperitoneally. The day of challenge was designated as day 1 of the experiment and considers it as 0 hr. [Wendy E. Walker, 2021; Komal Dolasia et al., 2018]
Mice received an intraperitoneal injection of E. coli ATCC 8739, 5.0×10^8 CFU per mouse in 200 μL to induce septic peritonitis as mentioned above. After 2 h of the E. coli infection, mice (n=6) were treated intravenously with two test doses of IS 111 (0.6 mg/kg & 1.2 mg/kg) in treatment groups. Control animals received 200 μL of normal saline. […] The figure was adopted and modified according to the present study. [Henrique G et al., 2020].
In all the animal experiments, IS 111 were administered by intravenous injections respectively; According to the clinical dosage regimen, IS 111 was repeatedly administered at 2 h after the intraperitoneal injection of heat-killed E. coli. The survival of mice was monitored for up to 5 days. In each group the half of the animals were killed after 18 hours. And in other subset of the animals, IS 111 at two doses 0.6 & 1.2 mg/kg were injected IV daily for 3 days following infection. The survival of mice was monitored for up to 18 h and the other half of the animals are continued for the survival monitored up to 5 days.
In the survival study, survival rates were determined over a period of 5 d with assessment every 12 h, by setting the day 0 from 0 to 18 h after surgery and continuing observation until […]. In each group the half of the animals were killed after 18 hours, in another half subset of animals was followed for 5 days for survival assessment after sepsis induction to verify mortality rates. IS 111 at two doses 0.6 & 1.2 mg/kg were injected IV daily 24 h for 3 days following the E. coli Infection.
The physical activity of the mice was recorded independently by two independent observers who were blinded to treatment before sampling as previously described. In this study predetermined grading system was used with a scale of 1 (healthy) to 5 (agony). […]

[3] = 3.12-100 μg/mL pretreatment, LPS 18 h, vs LPS group
[4] = 0.6 mg/kg IV, 18 hr after induction of septic shock
[5] = 18 h, comparable to control mice
[6] = serum 18 h, therapeutic administration

FAKKFAK [IS 111, Phe-Ala-Lys-Lys-Phe-Ala-Lys]
IL-1β production (ELISA) [1, 3]: inhibited
IL-6 levels (ELISA) [1, 3]: reduced
IL-10 levels (ELISA) [1, 3]: significantly increased
TNF-alpha levels (ELISA) [1, 3]: significantly reduced
Concentration with better inhibition of TNF-α, IL-1β and IL-6 than 100 μg/mL ([1]; LPS induced RAW 264.7): 25 µg/mL
NO production ([1]; LPS-stimulated RAW cells, summary table): ↓Cytotoxicity; ↓ NO production; ↓
Lung and liver injuries (histopathology) ([2]; 0.6 mg/kg IV, 18 h): reduces the injuries to moderate extent
Activity upon stimulation [2, 4]: Sluggish activity. Animals
Conjunctivitis [2, 4]: Mild (Usually serous
Hair coat [2, 4]: Moderately ruffled coats
Mice alive ([2]; 0.6 mg/kg): 50%
Lymphocyte numbers [2, 5]: restored
WBC numbers [2, 5]: restored
Neutrophil numbers ([2]; 18 h, vs septic mice): marginally higher
Mice alive ([2]; […]): 80%
Survival ([2]; after 7 days of infection, IS 111 treatment groups): 80%
IL-1b level [2, 6]: significantly reduce
IL-6 level [2, 6]: significantly reduce
IL-12 p70 level [2, 6]: significantly reduce
TNF-α level [2, 6]: significantly reduce
Reduction of mortality ([2]; vs diseased control animals (normal saline)): 80%
